Where two headings read alike, the source gives them in different places.
What was measured:
[1] = system: CYP 2C9; settings: read-out: Literature IC50, CYP 2C9; published limits; cited from earlier work
[2] = target: T1, CYP1A2 (Homo sapiens, UniProt P05177); experiment: CYP1A2 fluorometric microtiter plate inhibition assay
T1 sequence (P05177 1-516): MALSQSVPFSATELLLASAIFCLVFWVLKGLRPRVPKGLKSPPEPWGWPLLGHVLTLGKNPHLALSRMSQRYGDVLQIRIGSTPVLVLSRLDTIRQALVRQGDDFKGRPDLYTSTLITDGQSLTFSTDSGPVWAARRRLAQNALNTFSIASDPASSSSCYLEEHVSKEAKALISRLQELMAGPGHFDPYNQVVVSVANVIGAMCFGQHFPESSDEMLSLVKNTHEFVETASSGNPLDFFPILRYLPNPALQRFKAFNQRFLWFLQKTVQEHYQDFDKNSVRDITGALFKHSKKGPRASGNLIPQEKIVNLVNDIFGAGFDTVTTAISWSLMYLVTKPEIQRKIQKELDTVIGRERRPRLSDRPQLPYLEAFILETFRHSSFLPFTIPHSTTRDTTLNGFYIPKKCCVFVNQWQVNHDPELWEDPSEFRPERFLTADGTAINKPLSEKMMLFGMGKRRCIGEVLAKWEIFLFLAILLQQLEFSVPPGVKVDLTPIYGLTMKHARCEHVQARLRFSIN

[3] = target: T2, CYP3A4 (Homo sapiens, UniProt P08684); experiment: CYP3A4 fluorometric microtiter plate inhibition assay
T2 sequence (P08684 whole entry): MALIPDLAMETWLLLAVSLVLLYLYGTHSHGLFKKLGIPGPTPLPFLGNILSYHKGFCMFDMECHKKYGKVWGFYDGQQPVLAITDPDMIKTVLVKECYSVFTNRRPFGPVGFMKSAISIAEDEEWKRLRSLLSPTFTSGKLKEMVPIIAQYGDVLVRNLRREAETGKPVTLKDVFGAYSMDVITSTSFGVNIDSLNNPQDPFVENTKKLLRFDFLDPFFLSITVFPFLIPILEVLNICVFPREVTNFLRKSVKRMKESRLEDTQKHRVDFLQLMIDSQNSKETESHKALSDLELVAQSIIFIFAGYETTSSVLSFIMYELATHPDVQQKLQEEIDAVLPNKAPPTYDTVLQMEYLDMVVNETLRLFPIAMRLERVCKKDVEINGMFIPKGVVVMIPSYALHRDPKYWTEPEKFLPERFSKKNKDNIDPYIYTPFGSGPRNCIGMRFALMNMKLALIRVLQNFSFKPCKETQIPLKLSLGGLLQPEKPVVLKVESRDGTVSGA

[4] = target: T3, CYP2D6 (Homo sapiens, UniProt P10635); experiment: CYP2D6 fluorometric microtiter plate inhibition assay
T3 sequence (P10635 whole entry): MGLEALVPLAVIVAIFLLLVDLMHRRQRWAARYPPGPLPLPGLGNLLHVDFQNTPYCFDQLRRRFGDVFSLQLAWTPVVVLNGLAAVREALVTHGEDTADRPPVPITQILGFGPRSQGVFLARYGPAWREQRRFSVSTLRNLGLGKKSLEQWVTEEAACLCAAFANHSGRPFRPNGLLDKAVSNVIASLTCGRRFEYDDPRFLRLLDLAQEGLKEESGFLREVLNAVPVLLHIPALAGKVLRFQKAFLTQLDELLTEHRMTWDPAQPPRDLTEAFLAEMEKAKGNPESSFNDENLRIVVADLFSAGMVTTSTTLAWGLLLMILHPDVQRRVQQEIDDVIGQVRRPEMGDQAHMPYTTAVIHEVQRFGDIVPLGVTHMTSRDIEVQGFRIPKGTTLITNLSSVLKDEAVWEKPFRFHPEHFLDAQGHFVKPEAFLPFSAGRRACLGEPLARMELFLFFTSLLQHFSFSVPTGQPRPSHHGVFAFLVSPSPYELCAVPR

[5] = target: T4, CYP2C9 (Homo sapiens, UniProt P11712); experiment: CYP2C9 fluorometric microtiter plate inhibition assay
T4 sequence (P11712 whole entry): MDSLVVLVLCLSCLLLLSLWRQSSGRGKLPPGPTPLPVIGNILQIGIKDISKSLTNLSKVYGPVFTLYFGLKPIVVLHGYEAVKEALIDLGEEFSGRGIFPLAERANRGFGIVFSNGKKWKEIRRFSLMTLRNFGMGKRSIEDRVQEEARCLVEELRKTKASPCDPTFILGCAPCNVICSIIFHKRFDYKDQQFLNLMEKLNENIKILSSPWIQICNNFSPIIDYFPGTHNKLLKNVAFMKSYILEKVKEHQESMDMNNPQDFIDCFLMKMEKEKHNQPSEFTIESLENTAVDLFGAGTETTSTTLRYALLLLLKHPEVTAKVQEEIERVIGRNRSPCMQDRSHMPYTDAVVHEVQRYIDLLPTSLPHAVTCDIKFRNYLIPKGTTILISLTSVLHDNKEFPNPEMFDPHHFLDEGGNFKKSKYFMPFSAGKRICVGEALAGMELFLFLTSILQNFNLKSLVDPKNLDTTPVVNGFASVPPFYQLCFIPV

[6] = system: CYP1A2, CYP2C9, CYP2D6, CYP3A4; experiment: CYP isozyme bioassays, results stated across several isozymes; settings: human, pH 7.5
[7] = target: T1, CYP1A2; settings: recombinant enzyme
[8] = target: T4, CYP2C9; settings: recombinant enzyme
[9] = target: T3, CYP2D6; settings: recombinant enzyme
[10] = target: T2, CYP3A4; settings: recombinant enzyme
[11] = system: CYP 1A2; settings: cited from earlier work
[12] = system: CYP 2D6; settings: read-out: Literature IC50, CYP 2D6; published limits; cited from earlier work
[13] = system: CYP3A4; settings: cited from earlier work
[14] = system: CYP2C9, CYP3A4; experiment: in vitro; settings: human, pH 7.5

SMILES	IC50 [2]	IC50 [3]	IC50 [4]	IC50 [5]	also measured
COc1cc(/C=C/C(=O)O[C@H](C(=O)O)[C@](O)(Cc2ccc(O)c(O)c2)C(=O)O)ccc1O [CAA, Cimicifugic acid A]	7.2 µM	9.7 µM	9 µM	8.3 µM	IC50 [6]: 1.8 to 12.6 µM
CC(=O)O[C@@H]1C[C@@]23C[C@@]24CC[C@H](O[C@@H]2OC[C@@H](O)[C@H](O)[C@H]2O)C(C)(C)[C@@H]4CC[C@H]3[C@]2(C)C[C@@H]3O[C@@]4(C[C@@H](C)[C@@H]3[C@@]12C)OC[C@@]1(C)O[C@@H]41 [Deoyxactein, 23-epi-26-deoxyactein]	–	–	–	–	IC50 [7]: > 100 µM; IC50 [8]: 25.9 µM; IC50 [9]: 100 µM; IC50 [10]: 28.7 µM
Oc1ccc(/C=C/c2cc(O)cc(O)c2)cc1 [resveratrol]	–	–	–	–	IC50 ([11]; read-out: Inhibitory IC50 in CYP 1A2): 1.89 µM
COc1ccc(/C=C/C(=O)O[C@H](C(=O)O)[C@](O)(Cc2ccc(O)c(O)c2)C(=O)O)cc1O [CAB, Cimicifugic acid B]	7.35 µM	9.8 µM	12.6 µM	12.5 µM	IC50 [6]: 1.8 to 12.6 µM
O=C(/C=C/c1ccc(O)c(O)c1)O[C@H](C(=O)O)[C@](O)(Cc1ccc(O)c(O)c1)C(=O)O [Fukinolic acid, fukinolic acid]	1.8 µM	7.2 µM	5.4 µM	7.1 µM	IC50 [6]: 1.8 to 12.6 µM
CC(=O)O[C@@H]1C[C@@]23C[C@@]24CC[C@H](O[C@@H]2OC[C@@H](O)[C@H](O)[C@H]2O)C(C)(C)[C@@H]4CC[C@H]3[C@]2(C)C[C@@H]3O[C@]4(C[C@@H](C)[C@@H]3[C@@]12C)O[C@H](O)[C@@]1(C)O[C@@H]41 [Actein, actein]	> 100 µM	35.2 µM	51.1 µM	25 µM	IC50 [14]: 16.9 to 33.8 µM
CC(=O)O[C@@H]1C[C@@]23C[C@@]24CC[C@H](O[C@@H]2OC[C@@H](O)[C@H](O)[C@H]2O)C(C)(C)[C@@H]4CC[C@H]3[C@]2(C)C[C@@H]3O[C@]4(C[C@@H](C)[C@@H]3[C@@]12C)OC[C@@]1(C)O[C@@H]41 [26-deoxyactein]	–	–	–	–	IC50 ([13]; read-out: IC50 for CYP3A4 inhibition, Tsukamoto et al.): 100 µM

Reference: PMC3761975 (Current drug safety, 2010)
